Read-outs that look alike come from different tables or passages of the source.
Experiments:
[1] = Hygroscopicity by dynamic vapor sorption (DVS); assay type: physicochemical; settings: 25° C. and 80% RH
Procedure: Dynamic Vapor Sorption (DVS)
Test condition: Approximately 10-15 mg of sample was used for DVS detection.
Equilibrating dm/dt: 0.01%/min: (time: 10 min-180 min (maximum))
RH (%) measuring gradient: 10%
Range of RH (%) measuring gradient: 0%-90%-0%
The evaluation criteria was as follows:
SMS DVS Advantage dynamic vapor adsorption instrument
10-15 mg of the crystal form B of the compound of Formula (I) was taken and placed on a DVS sample pan for test.

[2] = Pharmacokinetic investigation in dogs; assay type: in vivo; settings: male, dog, plasma, beagle dogs; for AUC: read-out: Concentration integral AUC; for half-life: read-out: Half-life T1/2 (converted); for bioavailability: read-out: Bioavailability F
Excerpt: The experiments aimed to test the pharmacokinetics of the test compound in beagle dogs.
Two beagle dogs were selected as one group. The compound was formulated into a designated preparation. The vehicle for intravenous injection was a mixture of DMSO: polyethylene glycol […] (PEG400): saline=10:40:50 (volume ratio) or a mixture of 10% DMSO/10% solutol/80% water. The vehicle for oral administration was a mixture of 0.5% methylcellulose (MC)+0.2% Tween. Each animal was given the preparation intragastrically at a predetermined dosage.
Whole blood samples, each about 500 μL, were collected from the cephalic vein or saphenous vein at […], namely 5 minutes, 15 minutes, 30 minutes, 1 hour, 2 hours, 4 hours, 6 hours, 8 hours, 12 hours and 24 hours after the animals were administered.
The […] was put into a centrifuge tube containing anticoagulant, and centrifuged at 3000 g for 10 min at 4° C. The plasma supernatant was frozen quickly on dry ice, and then kept in a frige at −70±10° C. until LC-MS/MS analysis was performed.
The plasma concentration of the compound was processed using a non-compartmental model by WinNonlin™ Version 6.3.0 (Pharsight, Mountain View, Calif.) pharmacokinetic software. The peak concentration (Cmax), time of maximum plasma concentration (Tmax), and time of the last quantifiable concentration, were determined directly from the curve of plasma concentration−time.
The following pharmacokinetic parameters: half-life time of elimination phase (T½), the mean residence time of the drug in the body from time 0 to the end timepoint (MRT0-last), the mean residence time of the drug in the body from time 0 to infinite time (MRT0-inf), area under the plasma concentration-time curve from time 0 to the end timepoint (AUC0-last), area under plasma concentration-time curve from time 0 to infinite time (AUC0-inf), were calculated using the log-linear trapezoidal method.
For the individual plasma concentration below the detection line, when it appeared before Tmax, it was calculated as 0; when it appeared after Tmax, it was directly excluded. All parameters and ratios were reported in the form of three significant figures.
In these experiments, the pharmacokinetic parameters were calculated based on the theoretical blood collection time and theoretical administration concentration in the embodiments.

[3] = target: T1, human FGFR1 (Homo sapiens, UniProt P11362); assay: 33P isotope-labeled kinase activity assay, wild type FGFR1; assay type: biochemical; settings: ATP 5 μM
T1 construct: purchased Invitrogen PV3146
Procedure: (§1) IC50 was determined by using ^33P isotope-labeled kinase activity assay (Reaction Biology Corp), to evaluate the inhibitory ability of the test compound against human FGFR1 and FGFR4.
(§2) Buffer conditions: 20 mM Hepes (pH 7.5), 10 mM MgCl2, 1 mM EGTA, 0.02% Brij35, 0.02 mg/mL BSA, 0.1 mM Na3VO4, 2 mM DTT, and 1% DMSO.
(§3) Test procedures: At room temperature, the compound of Formula (I) was dissolved in DMSO to prepare a 10 mM solution. The substrate was dissolved in a freshly prepared buffer, and added with the test kinase and well mixed. By using acoustic technology (Echo 550), the solution of the test compound in DMSO was added into the above well-mixed reaction solution, to allow a compound concentration in reaction solution to be 10 μM, 3.33 μM, 1.11 μM, 0.370 μM, 0.123 μM, 41.2 nM, 13.7 nM, 4.57 nM, 1.52 nM, and 0.508 nM, or to be 10 μM, 2.50 μM, 0.62 μM, 0.156 μM, 39.1 nM, 9.8 nM, 2.4 nM, 0.61 nM, 0.15 nM, and 0.038 nM. After 15 minutes of incubation, ^33P-ATP (having an activity of 0.01 μCi/μl, and corresponding concentrations were given in Table 3) was added to start the reaction. Information about FGFR1, FGFR4 and their substrate's supplier, catalog number and lot number, as well as their concentration in the reaction solution, was listed in Table 3. […]

[4] = target: T2, FGFR1 (V561M) (Homo sapiens, UniProt P11362, V561M); assay: 33P isotope-labeled kinase activity assay, mutant FGFR1 (V561M); assay type: biochemical; settings: ATP 10 μM
T2 construct: purchased Signal Chem F04-13G
Procedure: (§4) IC50 was determined by using ^33P isotope-labeled kinase activity assay (Reaction Biology Corp), to evaluate the inhibitory ability of the test compound against mutant FGFR.
(§5) Test procedures: At room temperature, test compound was dissolved in DMSO to prepare a 10 mM solution. The substrate was dissolved in a freshly prepared buffer, to which the test kinase was added and well mixed. By using acoustic technology (Echo 550), the solution of the test compound in DMSO was added into the well-mixed reaction solution, to allow a compound concentration in reaction solution to be 10 μM, 3.33 μM, 1.11 μM, 0.370 μM, 0.123 μM, 41.2 nM, 13.7 nM, 4.57 nM, 1.52 nM, 0.508 nM, or to be 10 μM, 2.50 μM, 0.62 μM, 0.156 μM, 39.1 nM, 9.8 nM, 2.4 nM, 0.61 nM, 0.15 nM, 0.038 nM. After 15 minutes of incubation, ^33P-ATP (having an activity of 0.01 μCi/μl, and corresponding concentrations were given in Table 5) was added to start the reaction. […] After washing the filter paper with a 0.75% phosphoric acid solution repeatedly, the radioactivity of the phosphorylated substrate left on the filter paper was measured. The kinase activity data was expressed by comparing the kinase activity of the test compound with that of blank group (containing DMSO only), and IC50 was determined by curve fitting with Prism4 software (GraphPad).

[5] = target: T3, FGFR4 (N535K) (Homo sapiens, UniProt P22455, N535K); assay: 33P isotope-labeled kinase activity assay, mutant FGFR4 (N535K); assay type: biochemical; settings: ATP 2.5 μM
T3 construct: purchased Carna Biosciences Carna 08-524
Procedure: as §4, §5

[6] = target: T4, FGFR2 (V564F) (Homo sapiens, UniProt P21802, V564F); assay: 33P isotope-labeled kinase activity assay, mutant FGFR2 (V564F); assay type: biochemical; settings: ATP 20 μM
T4 construct: purchased SignalChem F05-12FG
Procedure: as §4, §5

[7] = target: T5, FGFR3 (V555M) (Homo sapiens, UniProt P22607, V555M); assay: 33P isotope-labeled kinase activity assay, mutant FGFR3 (V555M); assay type: biochemical; settings: ATP 20 μM
T5 construct: purchased SignalChem F06-12GG
Procedure: as §4, §5

[8] = target: T6, FGFR3 (K650M) (Homo sapiens, UniProt P22607, K650M); assay: 33P isotope-labeled kinase activity assay, mutant FGFR3 (K650M); assay type: biochemical; settings: ATP 2.5 μM
T6 construct: purchased Carna Biosciences Carna 08-199
Procedure: as §4, §5

[9] = target: T7, FGFR4 (V550M) (Homo sapiens, UniProt P22455, V550M); assay: 33P isotope-labeled kinase activity assay, mutant FGFR4 (V550M); assay type: biochemical; settings: ATP 2.5 μM
T7 construct: purchased Signal Chem F07-12DG
Procedure: as §4, §5

[10] = target: T8, FGFR2 (E565G) (Homo sapiens, UniProt P21802, E565G); assay: 33P isotope-labeled kinase activity assay, mutant FGFR2 (E565G); assay type: biochemical; settings: ATP 10 μM
T8 construct: purchased Signal Chem F05-12CG
Procedure: as §4, §5

[11] = target: T9, FGFR2 (N549H) (Homo sapiens, UniProt P21802, N549H); assay: 33P isotope-labeled kinase activity assay, mutant FGFR2 (N549H); assay type: biochemical; settings: ATP 50 μM
T9 construct: purchased Millipore 14-742
Procedure: as §4, §5

[12] = target: T10, human FGFR4 (Homo sapiens, UniProt P22455); assay: 33P isotope-labeled kinase activity assay, wild type FGFR4; assay type: biochemical; settings: ATP 100 μM
T10 construct: purchased Invitrogen P3054
Procedure: as §1, §2, §3

[13] = 1 mg/kg, intravenous administration (1 mpk)
[14] = 5 mg/kg, oral administration (5 mpk)

T7 sequence (P22455 22-802 V550M): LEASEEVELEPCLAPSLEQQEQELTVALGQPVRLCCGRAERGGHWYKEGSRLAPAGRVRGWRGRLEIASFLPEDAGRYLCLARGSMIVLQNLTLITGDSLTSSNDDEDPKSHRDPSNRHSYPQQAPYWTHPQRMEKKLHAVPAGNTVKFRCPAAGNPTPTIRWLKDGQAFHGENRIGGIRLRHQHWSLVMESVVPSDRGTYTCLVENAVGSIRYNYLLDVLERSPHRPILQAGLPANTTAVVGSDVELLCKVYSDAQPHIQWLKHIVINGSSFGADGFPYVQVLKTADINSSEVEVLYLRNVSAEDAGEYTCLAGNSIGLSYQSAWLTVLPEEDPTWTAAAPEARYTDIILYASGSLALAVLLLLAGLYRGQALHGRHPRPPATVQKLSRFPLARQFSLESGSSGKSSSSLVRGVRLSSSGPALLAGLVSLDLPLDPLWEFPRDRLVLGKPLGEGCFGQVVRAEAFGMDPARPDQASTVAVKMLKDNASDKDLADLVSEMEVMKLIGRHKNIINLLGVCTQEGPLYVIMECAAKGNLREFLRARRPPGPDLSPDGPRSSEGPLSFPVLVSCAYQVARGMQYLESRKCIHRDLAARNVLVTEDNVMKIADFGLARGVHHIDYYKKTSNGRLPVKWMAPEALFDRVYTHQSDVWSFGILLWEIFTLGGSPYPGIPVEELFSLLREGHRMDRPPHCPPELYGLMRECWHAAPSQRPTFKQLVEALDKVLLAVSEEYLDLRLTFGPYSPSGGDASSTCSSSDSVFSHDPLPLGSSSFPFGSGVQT
T6 sequence (P22607 23-806 K650M): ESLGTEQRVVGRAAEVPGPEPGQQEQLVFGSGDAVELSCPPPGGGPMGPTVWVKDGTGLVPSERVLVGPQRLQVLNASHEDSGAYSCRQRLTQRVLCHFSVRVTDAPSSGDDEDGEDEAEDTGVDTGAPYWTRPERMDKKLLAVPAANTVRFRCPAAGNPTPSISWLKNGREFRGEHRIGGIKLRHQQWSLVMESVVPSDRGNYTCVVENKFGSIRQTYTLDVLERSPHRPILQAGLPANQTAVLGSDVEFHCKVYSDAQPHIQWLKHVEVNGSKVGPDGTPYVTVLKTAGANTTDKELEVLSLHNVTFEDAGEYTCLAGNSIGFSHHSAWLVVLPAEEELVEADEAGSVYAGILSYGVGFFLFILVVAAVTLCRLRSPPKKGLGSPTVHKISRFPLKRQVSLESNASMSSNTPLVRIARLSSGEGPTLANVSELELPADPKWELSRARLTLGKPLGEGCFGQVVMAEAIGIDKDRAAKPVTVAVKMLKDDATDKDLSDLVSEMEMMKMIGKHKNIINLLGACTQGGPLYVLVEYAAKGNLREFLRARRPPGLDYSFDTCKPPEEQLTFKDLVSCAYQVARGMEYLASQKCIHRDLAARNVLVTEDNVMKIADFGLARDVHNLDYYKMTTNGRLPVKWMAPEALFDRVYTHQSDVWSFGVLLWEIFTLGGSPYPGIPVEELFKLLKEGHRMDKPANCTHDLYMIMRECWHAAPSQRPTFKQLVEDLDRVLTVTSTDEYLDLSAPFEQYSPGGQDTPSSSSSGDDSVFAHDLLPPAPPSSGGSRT
T4 sequence (P21802 22-821 V564F): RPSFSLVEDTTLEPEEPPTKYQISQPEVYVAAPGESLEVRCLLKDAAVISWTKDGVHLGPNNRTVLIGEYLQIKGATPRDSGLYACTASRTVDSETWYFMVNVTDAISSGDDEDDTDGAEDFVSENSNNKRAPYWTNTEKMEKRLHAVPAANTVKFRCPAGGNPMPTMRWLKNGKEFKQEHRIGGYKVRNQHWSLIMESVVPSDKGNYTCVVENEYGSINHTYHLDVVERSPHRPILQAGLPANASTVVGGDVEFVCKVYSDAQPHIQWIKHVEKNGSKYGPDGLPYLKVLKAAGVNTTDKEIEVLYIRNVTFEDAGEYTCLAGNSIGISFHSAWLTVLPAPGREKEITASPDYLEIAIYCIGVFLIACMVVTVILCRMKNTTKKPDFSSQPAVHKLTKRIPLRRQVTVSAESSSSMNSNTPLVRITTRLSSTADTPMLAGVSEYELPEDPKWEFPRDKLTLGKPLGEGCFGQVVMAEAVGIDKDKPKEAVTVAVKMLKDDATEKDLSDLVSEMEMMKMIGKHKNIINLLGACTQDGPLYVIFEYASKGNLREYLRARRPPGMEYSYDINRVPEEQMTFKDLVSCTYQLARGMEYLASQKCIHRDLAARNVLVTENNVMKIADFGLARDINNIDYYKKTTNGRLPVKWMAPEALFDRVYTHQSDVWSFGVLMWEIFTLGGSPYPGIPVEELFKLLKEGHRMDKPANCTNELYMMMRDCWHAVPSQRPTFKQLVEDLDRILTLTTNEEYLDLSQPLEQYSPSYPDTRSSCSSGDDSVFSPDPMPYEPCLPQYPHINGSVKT
T5 sequence (P22607 23-806 V555M): as the sequence (P22607 23-806 K650M) above, with V533M, M628K counted along it
T9 sequence (P21802 22-821 N549H): as the sequence (P21802 22-821 V564F) above, with N528H, F543V counted along it
T3 sequence (P22455 22-802 N535K): as the sequence (P22455 22-802 V550M) above, with N514K, M529V counted along it
T8 sequence (P21802 22-821 E565G): as the sequence (P21802 22-821 V564F) above, with F543V, E544G counted along it
T10 sequence (P22455 22-802): as the sequence (P22455 22-802 V550M) above, with M529V counted along it
T2 sequence (P11362 22-822 V561M): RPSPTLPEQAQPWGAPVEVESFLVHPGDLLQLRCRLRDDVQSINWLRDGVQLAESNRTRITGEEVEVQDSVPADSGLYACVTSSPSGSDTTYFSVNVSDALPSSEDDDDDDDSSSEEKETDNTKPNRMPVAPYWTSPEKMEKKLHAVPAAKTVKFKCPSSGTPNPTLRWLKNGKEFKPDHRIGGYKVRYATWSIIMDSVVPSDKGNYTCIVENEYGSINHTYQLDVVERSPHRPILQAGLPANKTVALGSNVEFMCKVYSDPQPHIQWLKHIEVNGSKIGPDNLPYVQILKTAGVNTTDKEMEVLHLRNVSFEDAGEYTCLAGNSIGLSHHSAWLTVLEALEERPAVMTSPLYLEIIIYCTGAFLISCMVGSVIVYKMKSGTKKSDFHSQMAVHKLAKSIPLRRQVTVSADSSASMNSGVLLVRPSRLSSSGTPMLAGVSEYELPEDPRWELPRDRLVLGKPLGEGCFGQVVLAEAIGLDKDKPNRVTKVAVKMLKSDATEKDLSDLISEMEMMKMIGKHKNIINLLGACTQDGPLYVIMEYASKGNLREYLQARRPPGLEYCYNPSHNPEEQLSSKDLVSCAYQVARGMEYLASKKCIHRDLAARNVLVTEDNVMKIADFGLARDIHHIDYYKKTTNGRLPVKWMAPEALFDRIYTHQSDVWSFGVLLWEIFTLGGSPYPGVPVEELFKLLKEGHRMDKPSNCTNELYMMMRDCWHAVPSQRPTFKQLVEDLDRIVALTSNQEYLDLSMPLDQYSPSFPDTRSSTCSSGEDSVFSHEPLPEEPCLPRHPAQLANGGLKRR
T1 sequence (P11362 22-822): as the sequence (P11362 22-822 V561M) above, with M540V counted along it

SMILES	hygroscopicity classification [1]	weight gain caused by moisture-adsorption ΔW [1] [%]	clearance [2, 13] [mL/min/kg]	AUC [2, 13] [µM·h]	half-life [2, 13] [h]	bioavailability [2, 14] [%]	AUC [2, 14] [µM·h]	IC50 [3] [nM]	IC50 [4] [nM]	IC50 [5] [nM]	IC50 [6] [nM]	IC50 [7] [nM]	IC50 [8] [nM]	IC50 [9] [nM]	IC50 [10] [nM]	IC50 [11] [nM]	IC50 [12] [nM]
C=CC(=O)N1CC[C@H](c2cc(-c3cc4cc(C)cc(OC)c4s3)c3c(N)ncnn23)C1	no or almost no hygroscopicity (weight gain caused by moisture is less than 0.2%.)	0.1928															
C=CC(=O)N1CC[C@H](c2cc(-c3cc4cc(C)cc(OC)c4s3)c3c(N)ncnn23)C1 [compound represented by Formula (I)]			9.4	4.13	3	88	18.2	0.2	38	34	33	7.3	0.2	5.6	0.1	0.5	0.2
C=CC(=O)N1CC[C@H](n2nc(C#Cc3cc(OC)cc(OC)c3)c3c(N)ncnc32)C1 [reference compound 1, reference compound]			17		0.8	41											

— patent US12398138B2, “FGFR inhibitor compound in solid form and preparation method therefor” (CSPC ZHONGQI PHARMACEUTICAL TECHNOLOGY (SHIJIAZHUANG) CO., …, priority 2019, dated 2025)
